These are literature values, as cited in patent publication US7932258B2, “Use of a partially neutralized, anionic (meth) acrylate copolymer as a coating for the production of a medicament pharmaceutical form releasing active substance at reduced pH values” (Evonik Roehm GmbH, priority 2005, dated 2011).

For the series the following is noted: pH 4.0.

SMILES strings stand for the structures.

For the compound `CC(=O)Oc1ccccc1C(=O)O` [Acetylsalicylic acid], the “Solubility and stability of the active substance” value was “adequately soluble and stable”.
